EP1013767A1, “Method of screening for agrochemicals” (AMERICAN CYANAMID COMPANY, priority 1998, dated 2000)
Entries after “also recorded” stand apart in the source; their conditions may differ.

Key:
LOX2:Hv:1 = experiment: Northern blot analysis of LOX2:Hv:1 mRNA accumulation in primary leaves of barley; assay type: in vivo, Barley (Hordeum vulgare L.); conditions: for kinetics of LOX2:Hv:1 transcript accumulation: 45 µM JM compared with 45 µM SA; for accumulation of LOX transcript: barley seedlings, powdery mildew susceptible and mlo-resistant cultivar, DCINA soil drench 10 mg active ingredient/L soil volume, BTH 1 mM spray
Protocol: (§1) Barley (Hordeum vulgare L.) mlo-resistant cultivar Salome as well as the susceptible cultivars Pallas and Manchuria were grown as described for example by Hause et al., J. Plant Physiol. 150, 127-132 (1997). Inoculation with conidia of Blumeria graminis f. sp. hordei race A6 (Wiberg, Hereditas 77, 89-148 (1974)) were performed at a density of 10 conidia per mm^2 with the primary leaf of seven-days-old seedlings at the onset of the light period.
(§2) Segments of seven-days-old primary leaves were freshly harvested and either floated on water, freshly prepared (±) JM, or Na-salicylate.
(§3) DCINA (2,6-dichloroisonicotinic acid), formulated as 25 % active ingredient with a wettable powder (WP) carrier (Métraux et al., Advances in molecular genetics of plant microbe interactions. Vol. 1, Kluwer Academic Publishers, Dordrecht, The Netherlands, pp. 432-439 (1991)), was applied to 7-days-old barley seedlings as a soil drench at a final concentration of 10 mg active ingredient/L soil volume. BTH (benzo[1,2,3]-thiadiazole-7-carbothioic acid S-methyl ester) was applied at a concentration of 1 mM by spraying a formulation with WP in distilled water. Controls were treated with WP.
Total RNA was extracted as described for example by Hause et al., Plant Cell Physiol. 37, 641-649 (1996). Northern blot analysis was performed with digoxigenin-Iabelled cDNAs (DIG-High Prime labelling Kit, Boehringer Mannheim) of barley LOX2:Hv:1 (Vörös et al., loc. cit) and barley PR1b (Bryngelsson et al., Mol. Plant-Microbe Int. 7, 267-275 (1994)).

PR1b = experiment: Northern blot analysis of PR1b mRNA accumulation in barley; assay type: in vivo, Barley (Hordeum vulgare L.); conditions: in response to treatment
Protocol: as §1, §2, §3
Total RNA was extracted as described for example by Hause et al., Plant Cell Physiol. 37, 641-649 (1996). […]

PR genes = conditions: wheat; cited from earlier work
powdery mildew fungus = conditions: barley, against the powdery mildew fungus; cited from earlier work

| SMILES | kinetics of LOX2:Hv:1 transcript accumulation (LOX2:Hv:1) | sensitivity of LOX2:Hv:1 (dose-response curves) (LOX2:Hv:1; JM compared with SA treatment, Fig. 1) | PR1b mRNA accumulation (PR1b) | accumulation of LOX transcript (LOX2:Hv:1) | activation of PR genes (PR genes) | LOX2:Hv:1 expression (LOX2:Hv:1; treatment with SA, cultivar Salome, leaf segments, 24 hours (Fig. 1)) | activation of SAR (powdery mildew fungus) | LOX2:Hv:1 induction, BTH compared with DCINA (LOX2:Hv:1; in all experiments) |
| --- | --- | --- | --- | --- | --- | --- | --- | --- |
| CCC=CCC1C(=O)CCC1CC(=O)OC (racemic) [JM, jasmonic acid methyl ester] | No differences | slightly higher sensitivity | not found |  |  |  |  |  |
| O=C(O)c1cc(Cl)nc(Cl)c1 [DCINA, 2,6-dichloroisonicotinic acid] |  |  |  | accumulation of LOX transcript | strongly activate |  |  |  |
| O=C(O)c1ccccc1O [SA, salicylic acid] | No differences |  |  |  | strongly activate | induced | activated SAR |  |
| CSC(=O)c1cccc2nnsc12 [BTH, benzo[1,2,3]-thiadiazole-7-carbothioic acid S-methyl ester] |  |  | not pathogen related genes like PR1b | accumulation of LOX transcript; also recorded: activate LOX | strongly activate |  |  | stronger induced |
